Tested on: ZRK
Experiment: NAD
Type: biochemical, Zygosaccharomyces rouxii
Conditions: 2000 uM NADPH/NADH; enzyme 1 ug/ml; optimal buffer

Compound	Km
CC(=O)c1cc(C(F)(F)F)cc(C(F)(F)F)c1 [Aprepitant K-INT, 1-(3,5-bis-trifluoromethyl-phenyl)-ethanone]	186 µM
COC(=O)CC(=O)Cc1cc(F)c(F)cc1F [Sitagliptin K-INT, 3-oxo-4-(2,4,5-trifluoro-phenyl)-butyric acid methyl ester]	346 µM
